For two compounds, IC50 results are on record in ChEMBL document CHEMBL4765362, “Thirty Years of HDAC Inhibitors: 2020 Insight and Hindsight” (J Med Chem, 2020).

One assay has as its target T1, Histone deacetylase 11 (Homo sapiens, UniProt Q96DB2).
T1 sequence (Q96DB2 whole entry): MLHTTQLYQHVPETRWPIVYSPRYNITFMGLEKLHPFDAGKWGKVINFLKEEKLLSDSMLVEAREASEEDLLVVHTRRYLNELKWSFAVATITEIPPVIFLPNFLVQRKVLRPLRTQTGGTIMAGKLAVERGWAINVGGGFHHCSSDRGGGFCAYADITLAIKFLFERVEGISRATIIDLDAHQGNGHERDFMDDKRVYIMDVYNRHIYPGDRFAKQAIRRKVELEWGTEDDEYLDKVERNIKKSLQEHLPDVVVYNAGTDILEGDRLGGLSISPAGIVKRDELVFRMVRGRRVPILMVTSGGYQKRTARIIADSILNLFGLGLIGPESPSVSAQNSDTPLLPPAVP
The assay is described as follows: Inhibition of human full length C-terminal Flag tagged HDAC11 expressed in HEK293T cells assessed as reduction in demyristoylation activity using H3K9-myristoyl peptide as substrate by HPLC method.

Assay [1] concerns the target T2, Histone deacetylase 4 (Homo sapiens, UniProt P56524). Nature of the assay: Inhibition of human full length C-terminal Flag tagged HDAC4 expressed in HEK293T cells using H3K9-myristoyl peptide as substrate by HPLC method.
For the next assay, the target named is T3, Histone deacetylase 8 (Homo sapiens, UniProt Q9BY41).
T3 sequence (Q9BY41 whole entry): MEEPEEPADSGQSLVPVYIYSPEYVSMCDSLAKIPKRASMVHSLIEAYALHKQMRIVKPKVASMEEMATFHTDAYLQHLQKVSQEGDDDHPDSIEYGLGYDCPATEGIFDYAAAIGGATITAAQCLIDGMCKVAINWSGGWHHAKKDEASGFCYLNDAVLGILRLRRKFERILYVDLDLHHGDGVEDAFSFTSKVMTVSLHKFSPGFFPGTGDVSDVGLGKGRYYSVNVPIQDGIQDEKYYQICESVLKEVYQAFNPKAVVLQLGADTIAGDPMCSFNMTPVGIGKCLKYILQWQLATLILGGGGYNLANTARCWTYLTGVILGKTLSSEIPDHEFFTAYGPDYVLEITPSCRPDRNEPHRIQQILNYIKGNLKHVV
Nature of the assay: Inhibition of HDAC8 (unknown origin).

For assay [2], the target named is T2, Histone deacetylase 4. The assay is described as follows: Inhibition of HDAC4 (unknown origin) using HDAC class IIa substrate (trifluoroacetyl-lysine-AMC) as substrate by fluorescent method.
Assay [3] deals with T4, Polyamine deacetylase HDAC10 (Homo sapiens, UniProt Q969S8).
T4 sequence (Q969S8 whole entry): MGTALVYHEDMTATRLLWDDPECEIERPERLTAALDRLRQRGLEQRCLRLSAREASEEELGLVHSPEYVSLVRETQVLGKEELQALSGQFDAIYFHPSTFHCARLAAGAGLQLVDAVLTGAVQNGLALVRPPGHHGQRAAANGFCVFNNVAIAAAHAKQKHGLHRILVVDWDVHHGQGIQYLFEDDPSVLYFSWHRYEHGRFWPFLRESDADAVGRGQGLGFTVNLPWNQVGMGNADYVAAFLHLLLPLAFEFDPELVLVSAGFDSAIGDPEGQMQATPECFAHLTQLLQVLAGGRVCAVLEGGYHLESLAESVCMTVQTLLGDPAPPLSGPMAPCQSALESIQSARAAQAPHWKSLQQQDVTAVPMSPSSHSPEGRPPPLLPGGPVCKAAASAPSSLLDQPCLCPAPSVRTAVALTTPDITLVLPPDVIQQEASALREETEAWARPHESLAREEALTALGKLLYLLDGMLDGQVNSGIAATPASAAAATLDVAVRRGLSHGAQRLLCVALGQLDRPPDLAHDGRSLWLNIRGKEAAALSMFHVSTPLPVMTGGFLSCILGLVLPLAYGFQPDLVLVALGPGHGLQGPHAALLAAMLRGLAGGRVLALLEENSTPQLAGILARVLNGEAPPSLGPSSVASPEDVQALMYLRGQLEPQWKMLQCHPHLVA
Nature of the assay: Inhibition of HDAC10 (unknown origin) using p53 residues (379 to 382)(RHKK(Ac)-AMC) as substrate by fluorescent method.

T2 sequence (P56524 whole entry): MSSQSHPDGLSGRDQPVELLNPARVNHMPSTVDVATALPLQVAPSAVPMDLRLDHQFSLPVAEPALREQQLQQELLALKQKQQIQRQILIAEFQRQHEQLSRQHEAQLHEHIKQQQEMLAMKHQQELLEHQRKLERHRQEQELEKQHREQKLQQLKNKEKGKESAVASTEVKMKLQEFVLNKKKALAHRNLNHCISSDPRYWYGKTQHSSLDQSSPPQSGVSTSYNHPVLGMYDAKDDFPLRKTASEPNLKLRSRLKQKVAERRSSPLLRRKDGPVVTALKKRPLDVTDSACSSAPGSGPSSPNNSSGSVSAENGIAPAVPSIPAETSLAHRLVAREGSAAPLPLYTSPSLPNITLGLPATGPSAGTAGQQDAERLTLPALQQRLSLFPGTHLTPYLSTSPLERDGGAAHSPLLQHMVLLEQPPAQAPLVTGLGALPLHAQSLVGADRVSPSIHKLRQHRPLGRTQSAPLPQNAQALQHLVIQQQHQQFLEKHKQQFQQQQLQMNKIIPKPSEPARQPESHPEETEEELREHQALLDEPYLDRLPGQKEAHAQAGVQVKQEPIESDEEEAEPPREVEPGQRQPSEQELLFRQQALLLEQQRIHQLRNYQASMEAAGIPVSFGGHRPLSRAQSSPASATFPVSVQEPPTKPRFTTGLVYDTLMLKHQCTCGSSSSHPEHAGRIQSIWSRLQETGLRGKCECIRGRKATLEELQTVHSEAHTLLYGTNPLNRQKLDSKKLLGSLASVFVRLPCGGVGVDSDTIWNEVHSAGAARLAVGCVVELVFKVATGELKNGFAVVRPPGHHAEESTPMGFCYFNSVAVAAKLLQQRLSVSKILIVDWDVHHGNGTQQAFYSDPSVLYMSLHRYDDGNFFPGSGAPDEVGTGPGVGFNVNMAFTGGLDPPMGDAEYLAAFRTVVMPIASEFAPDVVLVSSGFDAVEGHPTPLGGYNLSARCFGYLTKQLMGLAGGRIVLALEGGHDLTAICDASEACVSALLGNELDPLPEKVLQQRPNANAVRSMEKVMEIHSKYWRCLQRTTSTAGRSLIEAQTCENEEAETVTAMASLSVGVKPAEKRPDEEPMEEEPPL

What is called IC50 is the concentration that gives 50% inhibition. In the case of `CCCCCCCCCCCCCCCCNNC(=O)c1cccs1`, the results for the concentration for half-maximal inhibition (IC50) at Histone deacetylase 11, against Histone deacetylase 4 [1] and against Histone deacetylase 8 were 0.83 µM, above 10 µM and 6 µM, respectively.
Take `Cn1cc(-c2ccc(S(=O)(=O)n3ccc(/C=C/C(=O)Nc4ccccc4N)c3)cc2)cn1` [DOMATINOSTAT]: the IC50 (against Histone deacetylase 4 [2]; in assay [3]) was above 10 µM throughout.
